From patent US9765037B2, “Compositions and methods for treating toxoplasmosis, cryptosporidiosis, and other apicomplexan protozoan related diseases” (University of Washington Through its Center for …, priority 2010, dated 2017)
Converted amounts (≈) assume the structure as drawn. Read-outs that look alike come from different tables or passages of the source.

Columns and labels:
PfCDPK1 = PfCDPK1 (Plasmodium falciparum (isolate 3D7), UniProt P62344); test: biochemical; settings: for inhibition at 3 µM: read-out: PfCDPK1 (% inhibition @ 3 uM)
CpCDPK1 = CpCDPK1 (Cryptosporidium parvum (strain Iowa II), UniProt A3FQ16); test: biochemical; format: biochemical
Chain of CpCDPK1 (A3FQ16 1-538): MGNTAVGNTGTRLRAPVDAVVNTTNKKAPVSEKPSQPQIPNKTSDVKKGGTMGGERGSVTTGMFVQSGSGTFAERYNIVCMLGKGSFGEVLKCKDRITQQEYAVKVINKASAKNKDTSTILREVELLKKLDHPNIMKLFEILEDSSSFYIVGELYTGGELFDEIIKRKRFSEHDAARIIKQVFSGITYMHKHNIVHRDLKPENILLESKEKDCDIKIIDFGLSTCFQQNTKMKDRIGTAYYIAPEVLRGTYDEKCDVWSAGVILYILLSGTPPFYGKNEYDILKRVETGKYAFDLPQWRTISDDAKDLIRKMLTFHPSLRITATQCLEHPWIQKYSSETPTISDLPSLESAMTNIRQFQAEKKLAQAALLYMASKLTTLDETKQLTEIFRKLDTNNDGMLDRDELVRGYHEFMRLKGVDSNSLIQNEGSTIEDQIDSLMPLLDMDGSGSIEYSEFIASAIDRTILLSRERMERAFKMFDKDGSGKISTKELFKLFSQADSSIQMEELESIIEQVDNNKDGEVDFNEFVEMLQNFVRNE

PfCDPK4 = PfCDPK4 (Plasmodium falciparum (isolate 3D7), UniProt Q8IBS5); test: biochemical; settings: for inhibition at 3 µM: read-out: PfCDPK4 (% inhibition @ 3 uM)
TgCDPK1 = TgCDPK1 (Toxoplasma gondii, UniProt Q9BJF5); format: biochemical
Chain of TgCDPK1 (Q9BJF5 1-507): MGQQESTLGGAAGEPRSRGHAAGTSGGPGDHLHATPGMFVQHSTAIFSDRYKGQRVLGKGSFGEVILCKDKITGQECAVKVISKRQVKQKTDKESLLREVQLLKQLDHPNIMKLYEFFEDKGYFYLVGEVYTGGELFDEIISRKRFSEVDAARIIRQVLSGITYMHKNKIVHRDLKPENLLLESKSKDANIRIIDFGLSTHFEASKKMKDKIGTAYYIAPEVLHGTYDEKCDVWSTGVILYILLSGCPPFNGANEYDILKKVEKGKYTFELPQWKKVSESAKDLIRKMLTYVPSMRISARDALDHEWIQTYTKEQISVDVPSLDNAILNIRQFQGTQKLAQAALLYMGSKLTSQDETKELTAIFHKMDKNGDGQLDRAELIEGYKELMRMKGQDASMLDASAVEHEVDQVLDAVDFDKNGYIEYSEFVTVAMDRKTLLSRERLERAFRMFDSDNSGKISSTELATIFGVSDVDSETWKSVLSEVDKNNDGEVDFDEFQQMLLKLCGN

[1] = Solubility in buffers of various pH; format: physicochemical; settings: pH 6.5, aqueous buffer, read-out: Experimental Solubility pH 6.5
[2] = tested on: human lymphocyte (CRL8155); test: Growth inhibition of human cell line CRL8155
[3] = tested on: human promyelocytic leukemia (HL-60); test: Growth inhibition of human cell line HL-60
[4] = Table 8, read-out: IC50 (μM) CpCDPK1

Structure (SMILES)	EC50 (PfCDPK1)	IC50 (CpCDPK1; [4])	EC50 (PfCDPK4)	solubility ([1]; buffer)	IC50 (TgCDPK1; read-out: IC50 (μM) TgCDPK1)	other results
COc1ccc(-c2nn(C(C)C)c3ncnc(N)c23)cc1OC [Compound 7k, 3-(3,4-dimethoxyphenyl)-1-isopropyl-1H-pyrazolo[3,4-d]pyrimidin-4-amine]	1.36 µM	0.173 µM	> 3 µM			IC50 (CpCDPK1; read-out: CpCDPK1 IC50): 0.17 µM; IC50 (TgCDPK1; read-out: TgCDPK1 IC50): 0.037 µM
Nc1ncnc2c1c(-c1ccc(Cl)cc1)nn2CC1CCNCC1 [Compound 45, 3-(4-chlorophenyl)-1-(piperidin-4-ylmethyl)-1H-pyrazolo[3,4-d]pyrimidin-4-amine]	0.0565 µM		0.35 µM	62 µM (≈ 21.3 µg/mL)		
CC(C)(C)n1nc(-c2ccc(NC(=O)Cc3ccccc3)cc2)c2c(N)ncnc21 [Compound 66, N-(4-(4-amino-1-tert-butyl-1H-pyrazolo[3,4-d]pyrimidin-3-yl)phenyl)-2-phenylacetamide]	0.287 µM	2.02 µM	2.18 µM		0.178 µM	
COc1ccc2cc(-c3nn(C(C)(C)C)c4ncnc(N)c34)ccc2c1 [Compound 135]	0.668 µM		0.137 µM	3 µM (≈ 1.04 µg/mL)		
COc1ccc2[nH]c(-c3nn(C(C)C)c4ncnc(N)c34)cc2c1 [Compound 27, 1-isopropyl-3-(5-methoxy-1H-indol-2-yl)-1H-pyrazolo[3,4-d]pyrimidin-4-amine]	0.879 µM	0.623 µM	> 3 µM		0.0569 µM	
CCOc1ccc2cc(-c3nn(C4CCNCC4)c4ncnc(N)c34)ccc2c1 [Compound 138]				51 µM (≈ 19.8 µg/mL)		
CC(C)(C)n1nc(-c2ccc(NC(=O)C3CCCCC3)cc2)c2c(N)ncnc21 [Compound 64, N-(4-(4-amino-1-tert-butyl-1H-pyrazolo[3,4-d]pyrimidin-3-yl)phenyl)cyclohexanecarboxamide]	0.128 µM	0.928 µM	1.08 µM		0.143 µM	
CSc1cccc(-c2nn(C(C)C)c3ncnc(N)c23)c1 [Compound 7ab, 1-isopropyl-3-(3-(methylthio)phenyl)-1H-pyrazolo[3,4-d]pyrimidin-4-amine]					0.056 µM	inhibition at 3 µM (PfCDPK1): 85%; IC50 (CpCDPK1; read-out: IC50 (μM) CpCDPK1): 0.121 µM; inhibition at 3 µM (PfCDPK4): 79%
COc1ccc(-c2nn(C(C)(C)C)c3ncnc(N)c23)cc1C [Compound 132]	> 3 µM		1.49 µM	3.8 µM (≈ 1.18 µg/mL)		
CC(C)C(=O)Nc1ccc(-c2nn(C(C)(C)C)c3ncnc(N)c23)cc1 [Compound 59, N-(4-(4-amino-1-tert-butyl-1H-pyrazolo[3,4-d]pyrimidin-3-yl)phenyl)isobutyramide]	0.111 µM	0.832 µM	0.459 µM		0.0997 µM	
CC(C)(C)C(=O)Nc1ccc(-c2nn(C(C)(C)C)c3ncnc(N)c23)cc1 [Compound 60, N-(4-(4-amino-1-tert-butyl-1H-pyrazolo[3,4-d]pyrimidin-3-yl)phenyl)pivalamide]	0.0664 µM	0.929 µM	0.326 µM		0.0666 µM	
Cn1ccc2cc(-c3nn(C(C)(C)C)c4ncnc(N)c34)ccc21 [Compound 139]	1.15 µM		0.566 µM	0.69 µM (≈ 0.221 µg/mL)		
CC(C)(C)n1nc(-c2ccc(NC(=O)CCl)cc2)c2c(N)ncnc21 [Compound 58, N-(4-(4-amino-1-tert-butyl-1H-pyrazolo[3,4-d]pyrimidin-3-yl)phenyl)-2-chloroacetamide]	0.214 µM	0.588 µM	2.43 µM		0.136 µM	
CCOc1ccc2cc(-c3nn(C4CCN(CC)CC4)c4ncnc(N)c34)ccc2c1 [Compound 149]			0.0816 µM	75 µM (≈ 31.2 µg/mL)		Cell Toxicity CRL8155, % at 10 μM ([2]; 10 μM): <30% at 10 μM; Cell Toxicity CRL8155, % at 30 μM [2]: <30% at 30 μM; Cell Toxicity HL60, % at 30 μM [3]: <30% at 30 μM
CCC(=O)Nc1ccc(-c2nn(C(C)(C)C)c3ncnc(N)c23)cc1 [Compound 67, N-(4-(4-amino-1-tert-butyl-1H-pyrazolo[3,4-d]pyrimidin-3-yl)phenyl)propionamide]	0.325 µM	0.822 µM	1.99 µM		0.196 µM	
Nc1ncnc2c1c(-c1ccc3ncccc3c1)nn2CC1CCNCC1 [Compound 125]	1.09 µM		0.113 µM	54 µM (≈ 19.4 µg/mL)		

Structure (SMILES)	EC50 (PfCDPK1)	IC50 (CpCDPK1; [4])	EC50 (PfCDPK4)	solubility ([1]; buffer)	IC50 (TgCDPK1; read-out: IC50 (μM) TgCDPK1)	other results
COc1cc(-c2nn(C(C)C)c3ncnc(N)c23)cc(OC)c1OC [Compound 7l, 1-isopropyl-3-(3,4,5-trimethoxyphenyl)-1H-pyrazolo[3,4-d]pyrimidin-4-amine]						inhibition at 3 µM (PfCDPK1): 85%; selectivity TgCDPK1 versus CpCDPK1 (in words) (CpCDPK1): equipotent or slightly selective for CpCDPK1; IC50 (CpCDPK1; read-out: CpCDPK1 IC50): 0.093 µM; inhibition at 3 µM (PfCDPK4): 31%; IC50 (TgCDPK1; read-out: TgCDPK1 IC50): 0.42 µM
CC(C)CC(=O)Nc1ccc(-c2nn(C(C)(C)C)c3ncnc(N)c23)cc1 [Compound 62, N-(4-(4-amino-1-tert-butyl-1H-pyrazol[3,4-d]pyrimidin-3-yl)phenyl)-3-methylbutanamide]	0.0377 µM	0.692 µM	0.14 µM		0.0409 µM	
CC(C)(C)n1nc(-c2ccc3ncccc3c2)c2c(N)ncnc21 [Compound 143]				17 µM (≈ 5.41 µg/mL)		
Cc1cccc(-c2nn(C(C)(C)C)c3ncnc(N)c23)c1 [Compound 134]				19.3 µM (≈ 5.43 µg/mL)		
CCCC(=O)Nc1ccc(-c2nn(C(C)(C)C)c3ncnc(N)c23)cc1 [Compound 61, N-(4-(4-amino-1-tert-butyl-1H-pyrazolo[3,4-d]pyrimidin-3-yl)phenyl)butyramide]	0.0714 µM	0.927 µM	0.515 µM		0.0684 µM	
CCOc1ccc2cc(-c3nn(C4CCN(C)CC4)c4ncnc(N)c34)ccc2c1 [Compound 148]			0.039 µM	56 µM (≈ 22.5 µg/mL)		Cell Toxicity CRL8155, % at 30 μM [2]: <30% at 30 μM; Cell Toxicity HL60, % at 10 μM ([3]; 10 μM): <30% at 10 μM; Cell Toxicity HL60, % at 30 μM [3]: 49% at 30 μM;
Cn1ncc2cc(-c3nn(C(C)(C)C)c4ncnc(N)c34)ccc21 [Compound 142]	0.294 µM		0.0947 µM	5.2 µM (≈ 1.67 µg/mL)		
CC(C)(C)n1nc(-c2ccc(NC(=O)C3CCCC3)cc2)c2c(N)ncnc21 [Compound 63, N-(4-(4-amino-1-tert-butyl-1H-pyrazolo[3,4-d]pyrimidin-3-yl)phenyl)cyclopentanecarboxamide]	0.0118 µM	0.417 µM	0.136 µM		0.0462 µM	
CC(C)(C)n1nc(-c2ccc(Cl)cc2)c2c(N)ncnc21 [Compound 146]						solubility [1]: 9 µM (≈ 2.72 µg/mL)
COc1ccc(-c2nn(CC3CCNCC3)c3ncnc(N)c23)cc1C [Compound 144]				60 µM (≈ 21.1 µg/mL)		
CCOc1ccc2cc(-c3nn(C(C)(C)C)c4ncnc(N)c34)ccc2c1 [Compound 137]	2.43 µM		0.942 µM	1 µM (≈ 0.361 µg/mL)		
Cc1cc(-c2nn(CC3CCNCC3)c3ncnc(N)c23)ccc1-c1ccccc1 [Compound 118]	0.511 µM		0.512 µM	40 µM (≈ 15.9 µg/mL)		
CC(C)(C)n1nc(-c2ccc(NC(=O)c3ccccc3)cc2)c2c(N)ncnc21 [Compound 65, N-(4-(4-amino-1-tert-butyl-1H-pyrazolo[3,4-d]pyrimidin-3-yl)phenyl)benzamide]	0.101 µM	1.16 µM	2.85 µM		0.171 µM	
CC(C)c1nc(-c2ccc3ccccc3c2)c2c(N)nccn12 [Compound 8, 3-isopropyl-1-(naphthalen-2-yl)imidazo[1,5-a]pyrazin-8-amine]	0.156 µM	0.0078 µM	0.091 µM		0.0048 µM	
CC(C)n1nc(-c2ccc3c(c2)OCO3)c2c(N)ncnc21 [Compound 7u, 3-(benzo[d][1,3]dioxol-5-yl)-1-isopropyl-1H-pyrazolo[3,4-d]pyrimidin-4-amine]	0.422 µM		1.1 µM		0.045 µM	IC50 (CpCDPK1; read-out: IC50 (μM) CpCDPK1): 0.312 µM
